One data set concerns Reg I. Nature of the data set: Real-time RT-PCR of growth factor expression: Reg I. Type of data set: in vivo. The conditions noted are these: quantitative real-time PCR; versus non drug treated mice. As for the experimental part:
(§1) Real-time RT-PCR assay of growth factors and cytokine expression profiles Total RNAs were extracted from a sample of whole stomach from each animal with Trizol (Invitrogen, Calif.) and five micrograms of total RNA were used for first strand cDNA synthesis using Superscript II cDNA amplification System (Invitrogen, Calif.) following manufacturer's instructions. Real-time PCR was performed as above using RT-PCR primers for each gene as listed below. All primers were designed using Lasergene ver5.0 software (DNASTAR inc., Madison, Wis.). Results were calculated by minus delta delta threshold cycle (-ΔΔCt) method (Livak, K. J. et al., 2001). Briefly, the threshold cycle Ct1 of each sample reaction was deducted from the threshold cycle Ct2 of GAPDH reaction for normalization, and then deducted from the threshold cycle Ct3 of calibration control (45 cycles in this experiment), i.e., the final result was represented by the formula; Ct3-(Ct1-Ct2). […]
Background: In qPCR the cycle at which signal appears reflects the starting amount.

The subject of data set [1] is H. felis-infected INS-GAS mice. Nature of the data set: Stomach wet-weight and gross stomach size. Type of data set: in vivo. An excerpt:
The control group (A) included INS-GAS mice that were infected with H. felis but untreated, resulting in a total of 4 groups of mice (A-D). The INS-GAS (male) mice entered the study at 6-8 weeks of age, and were housed in 4 cages. There were 21 mice in each group, seven of which were euthanized after 3 months and 14 of which were euthanized after 6-7 months. The doses of medication are shown. Loxtidine was given in the drinking water while YF476 was given by subcutaneous injection once a week.
FIG. 4: Closed stomachs from INS-GAS/H. felis mice. Gross photos of representative stomachs from each of the four groups of 6 month H. felis-infected INS-GAS mice are shown. Mice were euthanized by CO2 inhalation and the stomachs were removed by […] of the esophagus and duodenum.
Mice in group III were treated orally with the histamine H2 receptor antagonist loxtidine (in drinking water) at a dose of 0.5 g/L, while group IV mice received both drugs. For the 3 months drug study of inhibitory effects on maximal acid secretion, gastric atrophy, hyperplasia and dysplasia, 8 mice were prepared for each group. For the 6 months drug study of inhibitory effects on gastric carcinogenesis, 17 mice were prepared for each group.

A further data set has as its system TNF-alpha. Nature of the data set: Real-time RT-PCR of cytokine expression: TNF-alpha. The conditions noted are these: 6 months, versus untreated mice. Type of data set: in vivo. The method, then:
as §1

Data set [2] has as its system enterochromaffin-like (ECL) cell. Nature of the data set: Gastric histology of loxtidine-treated South African rat. The format is in vivo, Mastomys (African multimammate rat). As to conditions: treated for 16 weeks. An excerpt:
FIG. 2: Characteristics of loxtidine.

Data set [3] has as its system COOH-terminally amidated gastrin. Nature of the data set: Gastrin radioimmunoassay (serum amidated gastrin). The format is in vivo, mice. The conditions noted are these: 6 months treatment. The method, then:
Plasma gastrin levels (COOH-terminally amidated gastrin) were determined by radioimmunoassay using rabbit antiserum L2 that reacts similarly with G17 and […]. Real-time PCR Assay of Helicobacter felis infection in mouse stomachs and RT-PCR assay of growth factors and cytokine expression profiles H.felis DNA present in infected mouse stomachs was quantified using a modification of a previously described realtime PCR assay that accurately quantified H. pylori (Ge, Z. et al., 2001). Two primers (forward: 5′-[…] -3′ (SEQ ID NO:1); reverse: 5′-[…]-3′(SEQ ID NO:2) were designed to hybridize within the conserved region of the single copy H. felis flaB gene locus. No products were amplified from DNA isolated from H. pylori, H. mustelae, or H. bizzozeroni, confirming the specificity of these oligonucleotides for H. felis. DNA from plate-grown H. felis and from mouse gastric corpus was prepared using a high pure PCR kit (Roche Molecular Biochemicals, Indianapolis, IN). Real-time PCR was performed using SmartCycler (Cepheid, Calif.) and Quantitect SYBR Green PCR kit (QIAGEN Inc., Valencia, Calif.) following the manufacturer's instructions. Briefly, the PCR assay was performed under the following conditions: 95° C. for 15 minutes followed by 45 cycles of 95° C. for 15 seconds, 55° C. for 30 seconds and 72° C. for 30 seconds. […]

A further data set concerns ECL cell. The conditions noted are these: cited from earlier work.
A further data set concerns IFN-gamma. The experiment in a line: Real-time RT-PCR of cytokine expression: IFN-gamma. Type of data set: in vivo. The conditions noted are these: 6 months, versus untreated mice. The method, then:
as §1

“And” between values parts separate entries of the source, which are not always exact repeats. Equal values may be shown once.

As to “1-methyl-5-((3-(3-(1-piperidinylmethyl)phenoxy)propyl)amino)-1H-1,2,4-triazole-3-ethanol [Loxtidine]”, the “Reg I expression level” value with Reg I is “markedly reduced”. Besides, the Gross stomach size result in data set [1] (6 month H. felis-infected mice) was “significant reduction in apparent size”. Further, the “Stomach weight after treatment” value in data set [1] (untreated 1831 / ~1830 mg) is ~400 mg and ~800 mg. In addition, the TNF-alpha expression level entry in the data set on TNF-alpha (listed as Loxtidine alone) is reported as “significantly lower level”; in the data set on TNF-alpha (listed as loxtidine alone) it was “significantly down-regulated”. Also, in data set [2], the Gastric histology finding result is listed as “enterochromaffin-like (ECL) cell neoplasia”. For the same substance, the “Serum amidated gastrin levels compared with untreated mice” value in data set [3] is “no significant, but in a higher tendency”; in data set [3] (listed as loxtidine alone) it was “tendency toward higher gastrins that was not significant”. Moreover, the “Tumor induction in rats” value in the data set with ECL cell (rat, in vivo) is “induction of ECLomas”. In addition, the “Duration of administration after which ECL cell hyperplasia was seen” value in the data set on ECL cell (rats, Poynter et al.) is reported as 39 days. For the same substance, the IFN-gamma expression level entry with IFN-gamma (listed as Loxtidine alone) is recorded as “significantly lower level”; in the data set on IFN-gamma (listed as loxtidine alone), “significantly down-regulated”.

(Values after US20050042283A1, “Histamine and CCK2/gastrin receptor blockade in the treatment of acid-peptic disease and cancer” (UNIVERSITY OF MASSACHUSETTS, priority 2003, published 2005).)
